Values quoted from earlier work, collected in patent US20090012284A1, “Process for the Preparation of a Piroxicam: Betacyclodextrin Inclusion Compound” (Chiesi Farmaceutici S.p.A., priority 2004, published 2009).

Details: pH 5, 37° C.

solubility in water: 0.003%
Structure (SMILES): CN1C(C(=O)Nc2ccccn2)=C(O)c2ccccc2S1(=O)=O [Piroxicam]
